Data published in ChEMBL document CHEMBL1240347, “MK-7009, a potent and selective inhibitor of hepatitis C virus NS3/4A protease” (Antimicrob Agents Chemother, 2010).

Target: T1, Cathepsin F (Homo sapiens, UniProt Q9UBX1)
T1 sequence (Q9UBX1 whole entry): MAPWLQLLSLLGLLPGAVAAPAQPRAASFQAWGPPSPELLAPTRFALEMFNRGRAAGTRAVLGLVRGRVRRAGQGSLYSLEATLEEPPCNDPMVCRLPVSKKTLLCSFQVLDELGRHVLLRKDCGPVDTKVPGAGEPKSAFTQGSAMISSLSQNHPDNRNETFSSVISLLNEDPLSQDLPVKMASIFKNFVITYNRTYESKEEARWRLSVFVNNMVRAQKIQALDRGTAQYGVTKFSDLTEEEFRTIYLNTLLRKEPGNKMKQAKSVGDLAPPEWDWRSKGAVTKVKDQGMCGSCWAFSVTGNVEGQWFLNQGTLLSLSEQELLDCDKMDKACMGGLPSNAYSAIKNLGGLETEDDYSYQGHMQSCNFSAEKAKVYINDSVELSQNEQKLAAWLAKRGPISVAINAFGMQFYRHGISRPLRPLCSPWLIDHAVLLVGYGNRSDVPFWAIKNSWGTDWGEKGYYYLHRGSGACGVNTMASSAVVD
Test: Inhibition of human Cathepsin F

How did the IC50 turn out when CC[C@@H]1C[C@]1(NC(=O)[C@@H]1C[C@@H]2CN1C(=O)[C@H](C(C)(C)C)NC(=O)OCC(C)(C)CCCCc1cccc3c1CN(C3)C(=O)O2)C(=O)NS(=O)(=O)C1CC1 [VANIPREVIR] was run?
The IC50 was greater than 10 µM.
